Test results from article PMC3006138, “Fexinidazole – A New Oral Nitroimidazole Drug Candidate Entering Clinical Development for the Treatment of Sleeping Sickness” (PLoS Neglected Tropical Diseases, 2010).

Test: Hepatocyte intrinsic clearance and metabolite profile
Format: in vitro ADME, rat
Conditions: male, Sprague Dawley, rat, cryopreserved hepatocytes, 1 µM
Experimental: Fexinidazole was incubated with cryopreserved hepatocytes from male CD-1 mice, male Sprague Dawley rats, male beagle dogs, male cynomolgus monkeys, and from pooled white or African-American human donor samples (purchased commercially), at concentrations of 1 µM and 10 µM. […] The incubated samples were analyzed by LC-MS after extraction into acetonitrile.
A quality control analysis of fexinidazole was performed via 1H-NMR in DMSO and LC- […]
provided by the Swiss Tropical Institute (Basel, Switzerland).
Reagents and solvents were of analytical grade and obtained from Sigma-Aldrich (St. Louis, […]
Cryopreserved hepatocytes from the male CD1 mouse, lot CSI; male Sprague Dawley rat, lot LPL; male beagle dog, lot BWX; male cynomolgus monkey, lot EHH; and pooled human samples, lot MJI, were purchased from In Vitro Technologies Inc (Baltimore, Maryland, […]
5.4. In vitro Incubations
On the day of the experiment a 10 mM stock solution of fexinidazole in DMSO was prepared and, within 3 hours, aliquots of this freshly prepared solution, after suitable dilution, were added to the incubation matrix, to reach fexinidazole final concentrations of 1 and 10 µM. The final percentage of DMSO was 0.01% in the incubation samples for the […]
On the day of experiment, the cryopreserved hepatocytes were thawed following the detailed instructions provided by the supplier.
The number of viable cells was determined using a Trypan Blue exclusion method.
5.4.1. Intrinsic Clearance Study […]
µM with mouse, rat, dog, monkey and human hepatocytes (300000 cells/mL for the mouse and 1 million cells/mL for the other species) in a final incubation volume of 0.75 mL […]
Incubations were performed in duplicate in a 48-well plate under shaking. Sampling was performed using an automatic liquid handling system (Multiprobe II EX, Packard). At 0, 1, 5, 10, 15, 20, 30, 60 and 120 minutes, 50 µL aliquots of the incubates were taken, then 80 µL of ice-cold acetonitrile and 20 µL of 1 µM warfarin in acetonitrile (internal standard) were added, and samples centrifuged at 2000 rpm for 20 min. The supernatant was analyzed by LC-MS/MS. […]
the medium alone at t = 0 and 120 minutes.
For the determination of phase I and phase II activity of hepatocytes, 7-ethoxycoumarin (7-EC) 1 µM, and 7-hydroxycoumarin (7-HC) 30 µM were used as positive controls and incubated under the same conditions as fexinidazole. Aliquots of incubates were taken at 0, 10, 20, 30, 60 and 120 minutes and processed as fexinidazole samples.
5.4.2. Metabolite Profile Study
For metabolite profiling, fexinidazole was incubated at a concentration of 10 µM with mouse, rat, dog, monkey and human hepatocytes (300000 cells/mL for the mouse and 1 million cells/mL for the other species) in a final incubation volume of 2 mL Leibovitz L-15 […]
Aliquots of the incubation samples were taken at t = 0, 30 and 120 minutes; the metabolism was stopped by the addition of an equal volume of cold acetonitrile and the samples centrifuged at 1500 rpm for 20 min. The supernatant was stored at -20°C until analysis. Control incubations were performed with the compound in the medium alone […]
5.5. Analysis of Samples for Intrinsic Clearance Determination
The analysis of the samples for intrinsic clearance determination was performed by an LC-MS/MS method, using the following conditions:
HPLC Equipment and Conditions
HPLC system Agilent 1100 binary pump (Agilent, Palo Alto, USA)
Autosampler CTC Pal (Alfatech, San Jose, USA)
Analytical column Guard Column SB-C8 4.6 x 12.5 mm, 5 µm (Zorbax)
Column temperature ambient
Mobile phase A 10 mM ammonium formate pH 4.0: acetonitrile (95:5, v:v)
Mobile phase B 10 mM ammonium formate pH 4.0: acetonitrile (5:95, v:v) […]
Gradient conditions Step Total time (min) flow (µL/min) %A % B […]
MS Equipment and Conditions
Mass spectrometer API 4000 Triple Quadrupole (MDS-Sciex, Toronto, […]
Source Turbo Ion Spray (TIS)
Ion mode Positive for fexinidazole and 7-EC.
Negative for 7-HC, 7-HC sulphate and 7-HC glucuronide.

## CSc1ccc(OCc2ncc([N+](=O)[O-])n2C)cc1 [Fexinidazole, 1-methyl-2-((p-(methylthio)phenoxy)methyl)-5-nitroimidazole]
  half-life at 1 µM: 1.2 min
read-out: CLint in vitro
  CLint scaled at 1 µM: > 3000 mL/min/kg
  hepatocyte CLint at 1 µM: 602 µL/min/1e6 cells
